From US12668590B2, “Composition and method for treating metabolic disorders” (priority 2016, dated 2026)

Key:
[1] = Stability (degradation) of pharmaceutical preparations at 40° C. and 70% relative humidity; format: physicochemical; settings: three-month period, compared to bromocriptine mesylate
Protocol: Pharmaceutical preparations of bromocriptine mesylate and bromocriptine citrate are exposed to atmospheric conditions (40° C. and 70% relative humidity) and the degradation of the bromocriptine is assessed over time.

[2] = Aqueous solubility/dissolution of bromocriptine citrate relative to bromocriptine mesylate; format: physicochemical; settings: various pH conditions, compared to bromocriptine mesylate
Protocol: Solid samples of equal amounts of bromocriptine mesylate and bromocriptine citrate added, under various pH conditions, to equal volumes of water or water/organic solutions in different vessels and the dissolution of the bromocriptine samples (aqueous solubility) was assessed over time.

## 2-bromo-alpha-ergocryptine citrate [bromocriptine citrate]
[1]
  degradation of the bromocriptine: substantially less
[2]; solid samples in water or water/organic solutions
  rate of dissolution: dissolve much more quickly
[2]; water or water/organic solutions
  aqueous solubility (mg of bromocriptine dissolved per ml of water): significantly greater solubility
